According to ChEMBL document CHEMBL1833897, “Lead generation of heat shock protein 90 inhibitors by a combination of fragment-based approach, virtual screening, and structure-based drug design” (Bioorg Med Chem Lett, 2011):

Key:
[1] = target: T1, Heat shock protein HSP 90-alpha (Homo sapiens, UniProt P07900)
Description: Binding affinity to human HSP90alpha assessed as 2D1H-15N chemical shift perturbation by NMR spectroscopy

[2] = target: T1, Heat shock protein HSP 90-alpha; remark: listed apart in the source
Description: Inhibition of human N-terminal GST-tagged HSP90alpha expressed in Escherichia coli after 1 hr using 10 mM of ATP and malachite green by microplate reader

[3] = target: T1, Heat shock protein HSP 90-alpha; remark: listed apart in the source
Description: Binding affinity to biotinylated N-terminal human HSP90alpha using of streptavidin coated surface by SPR binding assay

Row | Compound | Kd [1] | IC50 [2] | Kd [3]
1 | Nc1nccc(-c2nccs2)n1 | 0.57 µM |  | 
2 | CCCc1nc(N)ncc1C(=O)OCC | 0.34 µM |  | 
3 | CSc1nc(N)nc(-c2ccccc2)n1 | 51 µM | 31 µM | 
4 | CSc1nc(N)nc(SCc2ccc(Cl)cc2)n1 | 3.7 µM | 24 µM | 
5 | CSc1nc(N)nc(-c2ccncc2)n1 | > 1 µM |  | 
6 | Nc1ccncn1 | 300 µM |  | 
7 | Oc1ccc2c(c1)CCc1c[nH]nc1-2 |  |  | 0.75 µM
8 | CSc1nc(N)nc(-c2ccccc2C)n1 | 4.5 µM | 0.57 µM | 
9 | Nc1ncncn1 | 10 µM |  | 
10 | CSc1nc(N)nc(SCCN2CCOCC2)n1 | 2.3 µM | 33 µM | 
11 | CSc1nc(N)nc(SCc2ccccc2)n1 |  | 16 µM | 
12 | Nc1ncc2c(n1)-c1ccoc1CC2 | 0.33 µM |  | 
13 | Nc1cnccn1 | 79 µM |  | 
14 | CC(=O)c1cnc(N)nc1C | > 1 µM |  | 
